Measured values as given in US10662475B2, “Compositions and methods for the treatment and prevention of antipsychotic medication-induced weight gain” (Centre for Addiction and Mental Health, priority 2014, dated 2020).

Tests used:
[1] = Antipsychotic-induced weight change, orexin receptor (HCRTR1/HCRTR2) SNP association study; format: in vivo, human; details: Sample HYM n = 74, all on clozapine, 6 weeks
Excerpt: Written informed consent was obtained from all participants. […] Exclusion criteria for these studies included pregnancy, organic brain disorder, severe head injuries, previous medical conditions which required treatment and were not stable (Hepatitis C, HIV, Thyroid disorder or diabetes mellitus), substance dependence, clinically relevant mental retardation and severe personality disorder.
Genomic DNA was extracted from blood samples using the high-salt method (Lahiri and Nurnberger 1991). […] A total of 5 tagSNPs covering a 20 kb region including HCRTR1 (˜9.6 kb) and 28 tagSNPs covering 120 kb including HCRTR2 (˜108 kb) were included in this study.
Analysis of covariance (ANCOVA) was used to test association between genotype and weight change (%) from baseline as the dependent variable, genotypes as fixed factor and, baseline weight and duration of treatment as covariates. Corrections for multiple tests were calculated using Single Nucleotide Polymorphism Spectral Decomposition (SNPSpD, (Nyholt 2004)). Power calculations were performed using Quanto 1.2.4 (Gauderman and Morrison 2006). Assuming a minor allele frequency of 0.25 and a sample size of n=130, we had more than 80% power to detect a mean difference of 3.6% between carriers and non-carriers of the risk genotype in an additive or dominant model.

[2] = total sample N=128, patients treated with clozapine, risperidone, olanzapine or haloperidol
[3] = for weight gain (% change from baseline weight): total sample, European ancestry subjects with schizophrenia or schizoaffective disorder, by antipsychotic, mean ± SD
Experimental: Our sample comprised 66 European ancestry subjects aged 18-60 years with schizophrenia or schizoaffective disorder according to Diagnostic and Statistical Manual of Mental Disorders, Third Edition, Revised, or Fourth Edition (DSM-IIIR or DSM-IV) criteria.
Patients with a history of treatment refractory schizophrenia or schizoaffective disorder, or intolerance to typical antipsychotics, were treated with clozapine for 6 weeks and assessed for response and weight gain. These patients had never received a second generation antipsychotic prior to enrollment in the study, and underwent a 7-14 day washout period where they received no antipsychotic medication prior to receiving clozapine.
All analyses were done using R version 2.15.1 statistical software (R Core Team, 2012), with the rms package. Categorical variables were compared across study centres using Pearson chi-square test and continuous variables were compared using ANOVA, unless the assumptions of these tests were violated in which case Fisher's exact test and the Kruskal-Wallis test were used. Linear regression was used to test for differences in weight gain (% change from baseline weight) between genotypic groups using additive genotypic model with adjustment for relevant covariates.

[4] = adjunct treatment, human studies; cited from earlier work
[5] = biological target: T1, TSPO (Mus musculus, UniProt P50637); details: high-fat diet induced obese mice; cited from earlier work
T1 construct: host or cells: high-fat diet induced obese mice (in vivo)

[6] = test system: GLP-1; details: rat models; effects seem to occur after a longer treatment period; cited from earlier work

What does the source list for CN1CCN(C2=Nc3cc(Cl)ccc3Nc3ccccc32)CC1 [clozapine]?
Weight gain <7%, n (%) [1]: 47 (63.5) n (%); Weight gain ≥7%, n (%) [1]: 27 (36.5) n (%); Weight change ([1]; mean ± SD): 3.76 ± 4.4 kg; Weight change (%) ([1]; mean ± SD): 5.35 ± 6.3%; weight gain [2]: highest weight gain; Weight change ± SD (%) ([3]; Sample HYM n = 54, all on clozapine, 6 weeks): 3.84 ± 5.8%; weight gain (% change from baseline weight) [3]: 3.99%±5.8

For O=C(CCCN1CCC(O)(c2ccc(Cl)cc2)CC1)c1ccc(F)cc1 [haloperidol], which “weight gain (% change from baseline weight)” value [3] is on record?
Its value is −4.17%±15.2.

For CC(=O)[C@H]1CC[C@H]2[C@@H]3CC=C4C[C@@H](O)CC[C@]4(C)[C@H]3CC[C@]12C [pregnenolone], which symptoms of schizophrenia [4] is on record?
Its symptoms of schizophrenia is “improves symptoms of schizophrenia”.

Which “lipid accumulation in the liver, free and LDL cholesterol, and blood glucose levels” value [5] does the source give for CCC(C)N(C)C(=O)c1cc2ccccc2c(-c2ccccc2Cl)n1 (centres unmarked) [PK1195] here?
The value was “significantly lowered”.

For OCCOCCN1CCN(C2=Nc3ccccc3Sc3ccccc32)CC1 [quetiapine], which GLP-1 levels [6] is on record?
Its GLP-1 levels is “decrease GLP-1 levels”.
